Data taken from ChEMBL document CHEMBL1201862, “PubChem BioAssay data set” (2004).
Calls of active or inactive are those of the source.

Experiments:
[1] = target: Cytochrome P450 3A4 (Homo sapiens, UniProt P08684);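 note: CYP3A4 tested as one member of a cytochrome P450 panel screen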
[2] = target: Cytochrome P450 2C9 (Homo sapiens, UniProt P11712)
[3] = NIH-3T3 fibroblast cytotoxicity, dose response, cytotoxicity control, cell-based, fluorescence, Alamar Blue, secondary assay (AID 2327); type: functional;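 note: NIH-3T3 mouse fibroblasts cultured with fluconazole at 8 µg/mL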
[4] = fluconazole-exposed Candida albicans growth modulators – fluorescence, retest, confirmation (AID 2467); type: functional, cell-based
[5] = target: T1, Heat shock factor protein 1 (Mus musculus, UniProt P38532); assay: enhancement of HSF1-driven luciferase signal – cell-based, NIH3T3, luminescence, dose retest, confirmation (AID 435004); type: functional;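 note: stress induced by proteasome inhibitor MG132 added 30 min after compound; luciferase reporter driven by HSF1 response element in NIH3T3 cells; actives raise luminescence as potentiators of the MG132 stress response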
T1 sequence (P38532 whole entry): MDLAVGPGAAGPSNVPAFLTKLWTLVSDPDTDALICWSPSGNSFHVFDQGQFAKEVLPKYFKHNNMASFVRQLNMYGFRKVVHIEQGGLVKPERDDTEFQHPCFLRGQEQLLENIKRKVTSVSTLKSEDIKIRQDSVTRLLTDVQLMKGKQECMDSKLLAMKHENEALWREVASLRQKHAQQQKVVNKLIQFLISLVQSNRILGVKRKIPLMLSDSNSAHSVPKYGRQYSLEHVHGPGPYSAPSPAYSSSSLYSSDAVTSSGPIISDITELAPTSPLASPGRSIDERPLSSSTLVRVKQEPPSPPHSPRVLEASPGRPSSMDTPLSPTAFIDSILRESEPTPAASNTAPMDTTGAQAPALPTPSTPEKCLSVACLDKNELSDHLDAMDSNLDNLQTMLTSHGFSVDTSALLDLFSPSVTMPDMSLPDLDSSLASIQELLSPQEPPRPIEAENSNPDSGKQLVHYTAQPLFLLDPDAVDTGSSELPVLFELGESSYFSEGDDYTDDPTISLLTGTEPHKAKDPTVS

[6] = target: T2, Zinc finger protein mex-5 (Caenorhabditis elegans, UniProt Q9XUB2); assay: potency of MEX-5 RNA-binding blockers – biochemical, C. elegans, fluorescence polarization, dose response (AID 1960)
T2 sequence (Q9XUB2 whole entry): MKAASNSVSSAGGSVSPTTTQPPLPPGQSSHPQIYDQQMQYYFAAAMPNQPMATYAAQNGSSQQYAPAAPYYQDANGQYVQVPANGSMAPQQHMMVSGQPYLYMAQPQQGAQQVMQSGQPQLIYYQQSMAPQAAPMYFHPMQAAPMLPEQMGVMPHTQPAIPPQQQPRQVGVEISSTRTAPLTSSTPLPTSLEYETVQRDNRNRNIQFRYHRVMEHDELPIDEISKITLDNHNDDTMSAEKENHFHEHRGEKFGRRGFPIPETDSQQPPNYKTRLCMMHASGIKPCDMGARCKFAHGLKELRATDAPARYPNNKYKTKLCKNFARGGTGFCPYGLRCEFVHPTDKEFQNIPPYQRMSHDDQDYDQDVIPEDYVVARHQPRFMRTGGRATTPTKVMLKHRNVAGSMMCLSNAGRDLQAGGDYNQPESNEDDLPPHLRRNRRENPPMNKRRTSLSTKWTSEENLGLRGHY

[7] = target: T3, RNA-binding protein pos-1 (Caenorhabditis elegans, UniProt G5EF15); assay: disruptors of C. elegans POS-1 RNA interaction – biochemical, fluorescence polarization, dose response (AID 1964);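 note: purified POS-1 fused to maltose binding protein made in E. coli; potency of compounds blocking POS-1 binding to fluorescent RNA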
T3 sequence (G5EF15 whole entry): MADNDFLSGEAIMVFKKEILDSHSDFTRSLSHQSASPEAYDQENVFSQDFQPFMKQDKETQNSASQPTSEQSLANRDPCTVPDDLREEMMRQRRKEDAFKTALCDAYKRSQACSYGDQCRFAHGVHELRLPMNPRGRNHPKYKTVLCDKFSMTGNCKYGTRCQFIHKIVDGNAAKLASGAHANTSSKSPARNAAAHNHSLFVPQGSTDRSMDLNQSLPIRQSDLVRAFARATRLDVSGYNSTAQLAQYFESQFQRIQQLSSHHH

[8] = target: Cytochrome P450 2C19 (Homo sapiens, UniProt P33261); assay: Cytochrome panel assay with activity outcomes. Panel member name: p450-cyp2c19 Compounds with AC50 equal or less than 10 uM are considered active; type: functional; settings: read-out: AC50
[9] = NIH3T3 cell viability loss – ATP luminescence, mouse fibroblasts, counter-screen, dose response (AID 2010); type: functional, cell-based;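 note: cells exposed to compound for about 90 hours before reading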
[10] = Trypanosoma cruzi growth suppression in host cells – NIH3T3 host cells, beta-gal luminescence, confirmation (AID 2044); type: functional, cell-based;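 note: intracellular parasites grown in NIH/3T3 mouse fibroblasts as host cells; luminescent beta-galactosidase reporter signal from transgenic T. cruzi replicating inside host cells; inhibitors lower the luminescence signal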
[11] = target: T4, Protein RecA (Mycobacterium tuberculosis, UniProt P9WHJ3); assay: Fluorescence Cell-Free Homogeneous Dose Retest to Identify Inhibitors of RecA-Intein Splicing Activity. [Related pubchem assays (depositor defined):AID2097, AID2223, AID489010, AID492950]; type: functional
T4 sequence (P9WHJ3 whole entry): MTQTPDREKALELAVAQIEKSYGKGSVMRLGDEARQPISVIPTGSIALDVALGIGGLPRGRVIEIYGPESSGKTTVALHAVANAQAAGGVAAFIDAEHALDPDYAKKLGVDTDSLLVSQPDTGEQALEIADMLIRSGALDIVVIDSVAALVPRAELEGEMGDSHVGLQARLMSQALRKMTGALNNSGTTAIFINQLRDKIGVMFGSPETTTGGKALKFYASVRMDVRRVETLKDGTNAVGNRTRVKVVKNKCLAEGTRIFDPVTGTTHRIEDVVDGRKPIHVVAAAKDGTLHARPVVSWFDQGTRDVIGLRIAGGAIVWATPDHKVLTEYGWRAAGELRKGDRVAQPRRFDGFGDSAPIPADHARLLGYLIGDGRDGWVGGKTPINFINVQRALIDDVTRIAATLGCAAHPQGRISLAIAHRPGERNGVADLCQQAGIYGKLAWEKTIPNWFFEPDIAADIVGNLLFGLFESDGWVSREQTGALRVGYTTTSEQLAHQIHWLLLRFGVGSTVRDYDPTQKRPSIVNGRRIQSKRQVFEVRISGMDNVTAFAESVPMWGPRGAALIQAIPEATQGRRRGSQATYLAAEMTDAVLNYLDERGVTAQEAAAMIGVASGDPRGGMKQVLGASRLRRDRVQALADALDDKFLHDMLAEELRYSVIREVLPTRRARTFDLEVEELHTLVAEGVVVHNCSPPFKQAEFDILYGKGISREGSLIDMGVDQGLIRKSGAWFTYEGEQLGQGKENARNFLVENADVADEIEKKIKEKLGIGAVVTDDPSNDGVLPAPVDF

[12] = Luminescence Cell-Based Dose Response HTS to Identify Inhibitors of 5'UTR Stem-Loop Driven Prion Protein mRNA Translation in H4 Neuroglioblastoma Cells. [Related pubchem assays: 1827 (Project Summary), 1813 (Primary HTS)]; type: functional
[13] = luciferase reporter signal suppression in cells – H4 neuroglioma cells, luminescence, dose response (AID 1990); type: functional, cell-based
[14] = alpha-synuclein stem-loop luciferase translation blockers – H4 neuroglioma cells, luminescence, confirmation (AID 1988); type: functional, cell-based

Cytochrome P450 3A4, sequence (P08684 whole entry): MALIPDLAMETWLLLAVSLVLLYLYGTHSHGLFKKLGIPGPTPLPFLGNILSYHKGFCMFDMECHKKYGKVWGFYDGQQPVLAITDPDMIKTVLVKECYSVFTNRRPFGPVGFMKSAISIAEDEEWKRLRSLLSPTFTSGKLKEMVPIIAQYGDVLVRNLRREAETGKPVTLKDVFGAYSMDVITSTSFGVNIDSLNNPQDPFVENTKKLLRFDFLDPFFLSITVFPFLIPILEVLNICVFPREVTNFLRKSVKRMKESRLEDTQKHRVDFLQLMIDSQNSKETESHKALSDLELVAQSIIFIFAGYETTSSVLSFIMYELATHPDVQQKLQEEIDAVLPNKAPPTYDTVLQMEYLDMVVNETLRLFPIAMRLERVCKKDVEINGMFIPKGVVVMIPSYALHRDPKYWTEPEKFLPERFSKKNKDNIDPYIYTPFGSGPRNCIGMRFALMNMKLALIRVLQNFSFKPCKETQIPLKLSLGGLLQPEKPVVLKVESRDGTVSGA
Cytochrome P450 2C19, sequence (P33261 whole entry): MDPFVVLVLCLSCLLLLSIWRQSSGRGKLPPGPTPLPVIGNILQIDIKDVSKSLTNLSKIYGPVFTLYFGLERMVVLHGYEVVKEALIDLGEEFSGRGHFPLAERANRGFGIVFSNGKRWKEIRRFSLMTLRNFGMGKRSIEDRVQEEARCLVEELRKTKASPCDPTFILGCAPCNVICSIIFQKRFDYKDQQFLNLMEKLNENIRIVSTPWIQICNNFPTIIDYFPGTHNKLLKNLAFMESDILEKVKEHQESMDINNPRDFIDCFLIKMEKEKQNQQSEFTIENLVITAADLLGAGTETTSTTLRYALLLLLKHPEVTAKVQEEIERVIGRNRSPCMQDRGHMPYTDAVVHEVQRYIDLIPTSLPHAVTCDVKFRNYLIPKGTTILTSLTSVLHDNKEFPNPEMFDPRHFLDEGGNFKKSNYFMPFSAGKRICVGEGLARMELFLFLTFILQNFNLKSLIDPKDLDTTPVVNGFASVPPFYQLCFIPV
Cytochrome P450 2C9, sequence (P11712 whole entry): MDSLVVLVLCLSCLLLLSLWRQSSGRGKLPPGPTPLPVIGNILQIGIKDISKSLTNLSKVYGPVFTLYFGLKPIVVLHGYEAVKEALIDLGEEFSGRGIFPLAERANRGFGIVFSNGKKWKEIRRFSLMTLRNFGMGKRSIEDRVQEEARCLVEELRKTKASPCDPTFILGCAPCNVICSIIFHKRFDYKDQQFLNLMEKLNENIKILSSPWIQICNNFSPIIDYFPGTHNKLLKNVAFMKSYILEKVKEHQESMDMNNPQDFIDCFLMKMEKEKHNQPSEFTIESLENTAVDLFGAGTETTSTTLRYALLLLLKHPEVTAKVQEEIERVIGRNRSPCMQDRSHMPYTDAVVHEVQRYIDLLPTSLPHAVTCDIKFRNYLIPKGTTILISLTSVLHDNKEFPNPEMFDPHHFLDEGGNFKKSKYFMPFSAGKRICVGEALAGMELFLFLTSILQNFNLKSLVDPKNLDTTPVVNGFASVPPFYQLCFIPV

Cc1ccc(CS(=O)(=O)CCC(=O)NCCCOC(C)C)cc1
AC50 [1]: 35.5 µM (inconclusive)

O=c1c(-c2cccs2)nc2cnc(N3CCOCC3)nc2n1CCc1ccccc1
AC50 [1]: 12.6 µM (inconclusive)

CC(C)NC(=O)N1CCCC2(CCN(C(=O)c3cccn3C)CC2)C1
AC50 [1]: 25.1 µM (inconclusive)

Cc1cc(C(F)(F)F)n2nc(-c3cnn(C)c3C(F)(F)F)cc2n1
AC50 [1]: 17.8 µM (inconclusive)
AC50 [2]: 7.08 µM (inconclusive)

CC1CCCN(C(=O)c2cccc(S(=O)(=O)Nc3cc(C(F)(F)F)ccc3Cl)c2)C1 (configuration not stated)
EC50 [3]: > 150 µM (inactive)
EC50 [4]: > 38 µM (not active)

Nc1n[nH]c2nc3ccccc3nc12 [QUINOXALINE1]
AC50 [1]: 0.126 µM (inconclusive)

CCOC(=O)c1c(C)[nH]c(C)c1S(=O)(=O)N1CCN(c2cccc(C)c2)C(C)C1 (configuration not stated)
EC50 [5]: > 260 µM (inactive)

CC(C)C(C(=O)NCc1ccccc1)N(CC1CCCO1)C(=O)CNS(=O)(=O)c1ccccc1 (configuration not stated)
EC50 [5]: > 260 µM (inactive)

CCCc1cc(=O)oc2cc(C)c(CN3CCCC3)c(O)c12
EC50 [5]: > 260 µM (inactive)

Cc1c(Cl)cccc1N1C(=O)NC(=O)/C(=C\c2cc(C)n(-c3cccc(C(=O)O)c3C)c2C)C1=O
EC50 [6]: > 300 µM (not active)
EC50 [7]: > 300 µM (not active)

COc1ccc(C2/C=C\CN(S(=O)(=O)/C=C/c3ccccc3)[C@H](Cc3ccccc3)C(=O)N2Cc2ccc(F)cc2)cc1 (some centres not stated)
EC50 [5]: > 260 µM (inactive)

CN1C[C@H](CO)C=C2c3cccc4[nH]cc(c34)C[C@@H]21
AC50 [1]: 12.6 µM (inconclusive)

O=C(Nc1ccc(Br)cn1)c1ccc2nccnc2c1
EC50 [6]: > 300 µM (not active)
EC50 [7]: > 300 µM (not active)

O=C(Cn1nnc2ccccc21)N/N=C\C=C\c1ccccc1
AC50 [8]: 14.1 µM (inconclusive)
AC50 [2]: 12.6 µM (inconclusive)

CC(C)(C)c1nn(-c2ccccc2)c2[nH]c(=O)c(CNCc3ccco3)cc12
EC50 [6]: > 300 µM (not active)
EC50 [7]: > 300 µM (not active)

O=C(NNC(=O)c1cnccn1)c1cccc([N+](=O)[O-])c1
EC50 [6]: 1.03 µM (active)
EC50 [7]: 22.1 µM (active)

O=C(CCC(=O)Nc1ccccc1Cl)NNS(=O)(=O)c1ccc(Cl)cc1
EC50 [3]: > 160 µM (inactive)
EC50 [4]: > 38 µM (not active)

Nc1ccc(S(=O)(=O)NNC(=O)C(=O)NNc2ccccc2)cc1
EC50 [3]: 1.48 µM (active)
EC50 [9]: 1.96 µM (active)
EC50 [10]: 0.75 µM (active)
EC50 [4]: > 38 µM (not active)

C=CCNC(=O)CSc1nnc(C(CC)N(C)C)n1C1CCCCC1 (configuration not stated)
EC50 [5]: > 260 µM (inactive)

COCCNC(=O)C(c1ccc(C)cc1)N(C(=O)CCC(=O)Nc1ccccn1)c1ccccc1C (configuration not stated)
EC50 [5]: > 260 µM (inactive)

CCCOc1cccc(C(=O)Nc2cccnc2)c1
EC50 [3]: > 150 µM (inactive)
EC50 [4]: > 38 µM (not active)

CS(=O)(=O)c1ccc(-c2cc(Br)sc2-c2ccc(F)cc2)cc1 [DUP-697]
AC50 [1]: 20 µM (inconclusive)

O=S(=O)(Nc1cccc2ccccc12)c1cccc2nonc12
EC50 [5]: > 260 µM (inactive)

CC(C)=NO[C@@H](C)c1cc(-c2c(C)cc(C)cc2C)no1
AC50 [1]: 3.16 µM (inconclusive)
AC50 [8]: 0.631 µM (inconclusive)

O=S(=O)(c1ccc(-n2cnnn2)cc1)N1CCNCC1
EC50 [5]: > 260 µM (inactive)

ONc1cccnc1-n1nc(C(F)(F)F)cc1C(F)(F)F
EC50 [11]: > 380 µM (inconclusive)

N#CCCn1c(=O)c(-c2cccs2)nc2cnc(Oc3cccc(Cl)c3)nc21
AC50 [1]: 7.94 µM (inconclusive)
AC50 [2]: 6.31 µM (inconclusive)

C=CCN1C(=O)S/C(=C\c2ccc(N3CCOCC3)cc2C)C1=O
EC50 [6]: 61.3 µM (inconclusive)
EC50 [7]: 40.8 µM (active)

Cc1cc2c3c(c1)C1(C(=O)N3C(C)(C)CC2C)C(C#N)=C(N)OC2=C1C(=O)CC(C)(C)C2 (configuration not stated)
EC50 [6]: > 300 µM (not active)
EC50 [7]: > 300 µM (not active)

Cc1cc(C)nc(NC(=O)c2cccc([N+](=O)[O-])c2C)n1
AC50 [2]: 11.2 µM (inconclusive)

NS(=O)(=O)c1cc(C(=O)O)c(O)c2ccccc12
AC50 [2]: 3.98 µM (inconclusive)

CC(=O)Nc1ccc(S(=O)(=O)NCc2nc(-c3cccc(C)c3)no2)cc1
EC50 [6]: > 300 µM (not active)
EC50 [7]: 85.6 µM (active)

COc1ccc(NS(=O)(=O)c2cc(NC(=O)c3cnccn3)ccc2N2CCCC2)cc1
EC50 [5]: > 260 µM (inactive)

C1CNCCOCCNCCN1
AC50 [2]: 17.8 µM (inconclusive)

COc1cccc(CN2C(=O)C3(C(C#N)=C(N)OC4=C3C(=O)CCC4)c3ccccc32)c1 (configuration not stated)
EC50 [12]: > 120 µM (not active)
EC50 [3]: > 160 µM (inconclusive)
EC50 [6]: > 300 µM (not active)
EC50 [13]: 19.2 µM (active)
EC50 [7]: > 300 µM (not active)
EC50 [14]: 20.1 µM (active)
EC50 [4]: 1.24 µM (active)

Cc1ccc(OCCCC(=O)NCc2ccco2)cc1
AC50 [1]: 17.8 µM (inconclusive)

CCOC(=O)c1sc(Nc2nc3c(OC)cccc3s2)nc1C
EC50 [3]: 48.9 µM (active)
EC50 [4]: 2.8 µM (active)

COc1ccc2c(c1)CCN=C2Cc1ccc(OC)c(OC)c1
EC50 [12]: > 120 µM (not active)
EC50 [3]: 66.8 µM (active)
EC50 [13]: > 120 µM (not active)
EC50 [14]: > 120 µM (not active)
EC50 [4]: > 38 µM (not active)

Cc1cc(C)cc(N(C(=O)c2ccccn2)C(C(=O)NC2CCCCC2)c2cccs2)c1 (configuration not stated)
AC50 [8]: 17.8 µM (inconclusive)
AC50 [2]: 15.8 µM (inconclusive)

CSCC(C)N1CCC(n2nccc2NC(=O)CCCc2ccccc2)CC1 (configuration not stated)
EC50 [6]: 8.67 µM (active)
EC50 [7]: 6.99 µM (active)

Clc1ccc(CNC2CCN(Cc3ccccc3)CC2)cc1
EC50 [5]: > 260 µM (inactive)

CCOc1cc(N2CCOCC2)c(OCC)cc1NC(=O)Cc1cccc2ccccc12
EC50 [5]: > 260 µM (inactive)
